Source: PMC10669220, “In Vitro α-Glucosidase and α-Amylase Inhibition, Cytotoxicity and Free Radical Scavenging Profiling of the 6-Halogeno and Mixed 6,8-Dihalogenated 2-Aryl-4-methyl-1,2-dihydroquinazoline 3-Oxides” (Antioxidants, 2023)
Where “and” joins values, the source holds several entries; their conditions need not be identical. Identical values can stand only once.

Assays:
[1] = MTT cytotoxicity assay, HEK293-T; conditions: human, HEK293-T cells
[2] = test system: human embryonic kidney (HEK293-T) cell line; assay: MTT cytotoxicity assay, HEK293-T; conditions: Homo sapiens, HEK-293T, read-out: IC50 Hek293-T
[3] = test system: NO generated from nitric oxide synthase (NOS); assay: Inhibitory activity against NO generated from NOS (EnzyChrom kit); type: biochemical; conditions: mean ± SD, 1-50 µM
Method: A nitric oxide synthase (NOS) assay was performed following the procedure recommended by the manufacturer as outlined in the screening kit (Catalogue No. EINO-100; EnzyChrom). Various concentrations (1, 5, 10, 25 and 50 µM) of the compounds 3a, 3c, 3f, 3i, 3l, 3n and 3p and the reference standard, ascorbic acid, were prepared. The enzyme solution (12.5 U/mL NOS, 10 µL), assay buffer (25 µL) and test samples (5 µL) were incubated at room temperature for 15 min. After pre-incubation, 10 µL of reaction mix was added and incubated at 37 °C for 60 min. A 200 µL quantity of NO detection reagent was added, the detection reaction was run at 37 °C for 60 min, and absorbance was determined at a wavelength of 540 nm using an Elisa plate reader (Varioskan Flash, ThermoFisher Scientific, Vantaa, Finland). The average of three readings was used to calculate the NOS percentage inhibition using the following formula: % Inhibition=1−ΔOD Test Compd/ΔOD No Inhibitor ×100%
The IC50 values and standard deviation values were determined from nonlinear regression dose–response curve and compared with the results in GraphPad prism.

[4] = target: superoxide dismutase (SOD); assay: Superoxide dismutase (SOD) inhibitory assay (SOD assay kit-WST); type: biochemical; conditions: duplicate; 1-50 µM; 25 °C, 30 min; read-out: IC50 SOD inhibition
Method: The antioxidant activity of the compounds 3a, 3c, 3f, 3i, 3l, 3n and 3p against superoxide radicals was assessed via enzymatic assay in vitro using the SOD assay kit-WST according to the manufacturer’s instructions (Sigma-Aldrich®). The reaction mixtures in the SOD kit were combined with 20 μL of working solution of the samples in a 96-well plate. Plates were gently shaken and then incubated at 25 °C for 30 min. The reference positive control, diphenyleneiodonium (DPI), and the compounds were tested at 01, 5, 10, 25 and 50 µM in duplicates. The inhibition activity of SOD on the reaction of […] generated the superoxide with a tetrazolium salt, which was then determined by measuring the absorbance of the mixtures at a wavelength of 450 nm using an Elisa plate reader (Varioskan Flash, ThermoFisher Scientific, Vantaa, Finland). The SOD activity values obtained used to calculate the percentage of inhibition. % SOD activity=ODx− ODy/ODx ×100% where ODx is the absorbance of the blank (untreated SOD) and ODy is the absorbance of the sample (treated SOD). All tests were performed in duplicate.

[5] = NO free radical scavenging assay (sodium nitroprusside/Griess); conditions: mean ± SD; sodium nitroprusside, Griess reagent, 550 nm
Method: The assay was conducted following the method described in our previous study. A mixture of 10 mM sodium nitroprusside (20 µL), phosphate buffer (5 µL) and the test compound (5 µL) were incubated at 25 °C in a 96-well plate for 2.5 h. After incubation, 20 µL of Griess reagent (1.00 g of sulfanilic acid + 0.10 g naphthylethylene diamine dihydrochloride) was added to the previous mixture and allowed to stand for 30 min. […] Each experiment was performed in triplicate, and the average was taken. The average obtained from the absorbance readings was used to calculate the IC50 values in GraphPad prism from nonlinear regression dose–response curves.

[6] = test system: lung cancer (A549) cell line; assay: MTT cytotoxicity assay, A549; conditions: for Cell viability percentage, A549: Table S3; for IC50: Homo sapiens, A549, read-out: IC50 A549
Method: (§1) Cells were cultured in sterile Dulbecco’s Minimal Essential Medium (DMEM, Gibco) supplemented with 10% fetal bovine serum (FBS) and 1% penicillin-streptomycin solution. […] Cell counting was carried out using a handheld automated cell counter (Scapter 3.0™, Merck, Burlington, MA, USA) and seeded (1 × 10^4 cells/well) into a 96-well plate. After 24 h, the cells were treated with different concentrations (1, 5, 10, 25 and 50 µM) of the test compounds and reference standards prepared in DMEM. The MTT solution (20 μL) prepared in PBS (5 mg/mL) was added to all the wells, and the plates were incubated for 4 h, followed by 1 h incubation with 100 µL of dimethyl sulfoxide (DMSO) to dissolve the formazan crystals. Untreated cells and 5% DMSO were included in the experiment as negative controls. All experiments were performed in triplicate. The plates were read at 570 nm at a reference wavelength of 630 nm using an ELISA plate reader (Varioskan Flash, ThermoFisher Scientific, Vantaa, Finland). The percentage of cell viability was calculated using the following formula, Cell viability %=At/Ab×100 where At represents the absorbance value of test compound and Ab the absorbance value of the blank. […] The data were expressed as means ± SD.

human α-amylase = target: T1, human α-amylase (Homo sapiens, UniProt P04746); assay: α-amylase inhibitor screening kit assay; type: biochemical; conditions: mean ± SD, triplicate; tested at 1, 5, 10, 25, 50 µM
T1 construct: purchased Abcam ab283391
T1 sequence (P04746 16-511): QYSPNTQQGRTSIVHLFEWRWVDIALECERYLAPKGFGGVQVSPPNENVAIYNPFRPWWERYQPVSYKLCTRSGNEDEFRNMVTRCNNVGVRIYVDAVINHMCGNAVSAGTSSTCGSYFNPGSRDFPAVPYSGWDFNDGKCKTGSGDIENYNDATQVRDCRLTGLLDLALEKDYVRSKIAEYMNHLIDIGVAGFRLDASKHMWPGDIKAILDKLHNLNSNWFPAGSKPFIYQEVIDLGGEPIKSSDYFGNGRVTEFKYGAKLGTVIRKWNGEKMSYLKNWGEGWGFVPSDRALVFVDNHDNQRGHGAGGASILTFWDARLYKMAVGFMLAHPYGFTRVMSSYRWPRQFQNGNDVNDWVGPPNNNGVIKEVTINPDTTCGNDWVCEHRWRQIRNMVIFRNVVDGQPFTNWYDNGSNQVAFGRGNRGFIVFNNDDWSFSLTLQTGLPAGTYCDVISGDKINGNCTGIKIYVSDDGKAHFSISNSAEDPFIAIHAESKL
Method: The α-amylase assay was performed in triplicate, using a 96-well plate following the procedure recommended by the manufacturer as outlined in the α-amylase inhibitor Screening Kit (Catalogue No. ab283391; Abcam). […] The average values obtained from the absorbance readings were used to determine the IC50 and standard deviation values in GraphPad prism from nonlinear regression dose–response curves.

[7] = DPPH radical scavenging assay; conditions: mean ± SD; 45 min in the dark; 512 nm
Method: The DPPH radical scavenging assay was conducted following the procedure described in our previous study. The test compounds and ascorbic acid at various concentrations (ranging from 0 µM to 50 µM) in DMSO were mixed with a solution of DPPH (0.20 mM) in methanol and incubated in the dark for 45 min. Five absorbance readings were recorded at 512 nm using an Elisa plate reader (Varioskan Flash, ThermoFisher Scientific, Vantaa, Finland). The experiment was carried out in triplicate, and averaged values from the absorbance readings were used to determine the IC50 and standard deviation values in GraphPad prism from nonlinear regression dose–response curves.

[8] = target: T2, α-Glucosidase type 1 from baker's yeast (Saccharomyces cerevisiae, UniProt P53341); assay: biochemical; conditions: IC50 α-Glucosidase, mean ± SD, triplicate; tested at 1, 5, 10, 25, 50 µM
T2 construct: purchased Sigma Aldrich (Pty) Ltd. G5003
T2 sequence (P53341 whole entry): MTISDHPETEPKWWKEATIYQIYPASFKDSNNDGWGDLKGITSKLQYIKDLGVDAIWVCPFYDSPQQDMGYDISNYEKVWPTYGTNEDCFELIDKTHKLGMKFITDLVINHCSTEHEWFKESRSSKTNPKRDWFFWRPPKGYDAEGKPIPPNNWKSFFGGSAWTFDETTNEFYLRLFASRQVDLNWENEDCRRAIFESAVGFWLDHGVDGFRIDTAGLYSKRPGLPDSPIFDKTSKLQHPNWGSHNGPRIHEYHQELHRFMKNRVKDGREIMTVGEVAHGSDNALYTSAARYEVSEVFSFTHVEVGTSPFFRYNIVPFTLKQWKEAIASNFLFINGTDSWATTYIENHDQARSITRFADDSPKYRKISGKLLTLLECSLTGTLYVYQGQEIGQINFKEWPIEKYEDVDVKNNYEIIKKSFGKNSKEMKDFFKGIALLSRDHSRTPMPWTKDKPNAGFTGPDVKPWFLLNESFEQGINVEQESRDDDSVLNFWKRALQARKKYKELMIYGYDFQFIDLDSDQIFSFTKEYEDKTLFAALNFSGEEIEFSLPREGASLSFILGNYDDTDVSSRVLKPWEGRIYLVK
Method: The assay was conducted in triplicate following a method described in our previous study. […] After pre-incubation, 17 µL of 2 mM PNP-G was added. The absorbances were recorded in a 96-well microplate at 400 nm using an Elisa plate reader (Varioskan Flash, ThermoFischer Scientific, Vantaa, Finland). The average values obtained from the readings were used to determine the IC50 and standard deviation values using a GraphPad Prism software (Version 8, GraphPad Software Inc., San Diego, CA, USA). The average values obtained from the absorbance readings were used to determine the IC50 and standard deviation values in GraphPad prism from nonlinear regression dose–response curves.

[9] = test system: breast cancer (MCF-7) cell line; assay: MTT cytotoxicity assay, MCF-7; conditions: for Cell viability percentage, MCF-7: Table S2; for IC50: Homo sapiens, MCF7, read-out: IC50 MCF-7
Method: as §1

Row | Compound | viability at 1 µM [1] | viability at 5 µM [1] | viability at 10 µM [1] | viability at 25 µM [1] | viability at 50 µM [1] | IC50 [2] | IC50 [3] | IC50 [5] | Cell viability percentage, A549 ([6]; Conc. 1 (µM per method)) | IC50 [6] | IC50 (human α-amylase) | IC50 [7] | IC50 [8] | Cell viability percentage, MCF-7 ([9]; Conc. 1 (µM per method)) | Cell viability percentage, MCF-7 ([9]; Conc. 5 (µM per method)) | Cell viability percentage, MCF-7 ([9]; Conc. 10 (µM per method)) | Cell viability percentage, MCF-7 ([9]; Conc. 25 (µM per method)) | Cell viability percentage, MCF-7 ([9]; Conc. 50 (µM per method)) | IC50 [9] | melting point | further results
1 | CC1=[N+]([O-])C(c2ccc(Cl)cc2)Nc2ccc(Br)cc21 (centres unmarked) [Compound 3c] | 64.7% | 62.9% | 50.3% | 34.2% | 23.5% | 27.54 ± 0.05 µM | 1100 ± 3 nM | 7.45 ± 0.002 µM | 73,4391% | 15.26 ± 0.09 µM | 30.48 ± 0.02 µM | 33.52 ± 0.025 µM | 1040 nM and 920 nM | 46,7898% | 44,7938% | 42,5981% | 41,6999% | 37,2256% | 25.48 ± 0.08 µM | 171 to 173 °C | IC50 [4]: 4.6 ± 0.14 µM; Cell viability percentage, A549 ([6]; Conc. 5 (µM per method)): 66,5879%; Cell viability percentage, A549 ([6]; Conc. 10 (µM per method)): 54,3481%; Cell viability percentage, A549 ([6]; Conc. 25 (µM per method)): 41,782%; Cell viability percentage, A549 ([6]; Conc. 50 (µM per method)): 29,5534%
2 | COc1ccc(C2Nc3c(I)cc(Br)cc3C(C)=[N+]2[O-])cc1 (centres unmarked) [Compound 3l] | 80.4% | 69.4% | 59.2% | 25.5% | 19.7% | 32.39 ± 0.17 µM | 1060 ± 5 nM | 67.81 ± 0.004 µM | 89,6276% | 16.34 ± 0.06 µM | 54.18 ± 0.01 µM | 27.7 ± 0.04 µM | 920 nM and 1040 nM | 66,3742% | 55,5856% | 51,5919% | 35,1896% | 17,5102% | 18.12 ± 0.1 µM | 153 to 155 °C | IC50 [4]: 5.6 ± 0.17 µM; Cell viability percentage, A549 ([6]; Conc. 5 (µM per method)): 82,1465%; Cell viability percentage, A549 ([6]; Conc. 10 (µM per method)): 60,333%; Cell viability percentage, A549 ([6]; Conc. 25 (µM per method)): 45,5732%; Cell viability percentage, A549 ([6]; Conc. 50 (µM per method)): 45,4944%
3 | CC1=[N+]([O-])C(c2ccc(F)cc2)Nc2c(Br)cc(I)cc21 (centres unmarked) [Compound 3n] | 75.1% | 70.1% | 54.1% | 39.6% | 20.5% | 32.42 ± 0.06 µM | 3500 ± 10 nM | 0.88 ± 0.004 µM | 79,9753% | 17.22 ± 0.07 µM | 4.71 ± 0.01 µM | 6.84 ± 0.009 µM | 43230 ± 50 nM | 34,8969% | 33,2335% | 31,9528% | 31,7365% | 30,1896% | 14.79 ± 0.1 µM | 125 to 127 °C | IC50 [4]: 6.2 ± 0.12 µM; Cell viability percentage, A549 ([6]; Conc. 5 (µM per method)): 73,2703%; Cell viability percentage, A549 ([6]; Conc. 10 (µM per method)): 62,0205%; Cell viability percentage, A549 ([6]; Conc. 25 (µM per method)): 43,4807%; Cell viability percentage, A549 ([6]; Conc. 50 (µM per method)): 30,3521%
4 | O=C1O[C@H]([C@@H](O)CO)C(O)=C1O [Ascorbic acid, ascorbic acid, reference compound] |  |  |  |  |  |  | 999 ± 6 nM | 5.39 ± 0.005 µM |  |  |  | 5.02 ± 0.009 µM |  |  |  |  |  |  |  |  | 
5 | CC1=[N+]([O-])C(c2ccccc2)Nc2ccc(I)cc21 (centres unmarked) [Compound 3e] | 69.7% | 60% | 40% | 31.9% | 20% | 20.12 ± 0.06 µM |  | 52.38 ± 0.003 µM | 74,9578% | 11.4 ± 0.12 µM | 49.5 ± 0.06 µM | 1.1 ± 0.031 µM | 6040 ± 10 nM | 27,8443% | 22,0559% | 23,6194% | 19,7272% | 17,2488% | 15.83 ± 0.14 µM | 184 to 186 °C | Cell viability percentage, A549 ([6]; Conc. 5 (µM per method)): 64,338%; Cell viability percentage, A549 ([6]; Conc. 10 (µM per method)): 52,0419%; Cell viability percentage, A549 ([6]; Conc. 25 (µM per method)): 40,2408%; Cell viability percentage, A549 ([6]; Conc. 50 (µM per method)): 30,3184%
6 | CC1=[N+]([O-])C(c2ccc(Cl)cc2)Nc2c(Br)cc(I)cc21 (centres unmarked) [Compound 3o] | 45.2% | 44.6% | 44.4% | 44.2% | 37.7% | 58.98 ± 0.17 µM |  | 23.25 ± 0.002 µM |  | 20 ± 0.05 µM | 49.18 ± 0.01 µM | 88.45 ± 0.009 µM | 7070 ± 40 nM | 46,2908% | 41,6001% | 39,6041% | 38,7891% | 23,0428% | 16.5 ± 0.01 µM | 140 to 142 °C | 
